What is called Inhibition is the drop in the measured response relative to a control, in per cent. One may read the IC50 as the concentration at which inhibition is half-maximal. Read a low IC50 as inhibition by little substance. As usually defined, the Ki is a measure of affinity in units of concentration, obtained from inhibition or displacement. Read a low Ki as a stronger hold on the target.

Data on three compounds can be found in ChEMBL document CHEMBL1137091, “Carbonic anhydrase inhibitors. Design of selective, membrane-impermeant inhibitors targeting the human tumor-associated isozyme IX” (J Med Chem, 2004).

Test [1] is filed under the species Homo sapiens. Nature of the test: Percentage inhibition for the inhibition of Cl-/NO3- exchange measured for AE1 transfected cells (before and after treatment with CAI). Format: functional.
The species entered for test [2] is Homo sapiens. The experiment in a line: Relative transport activity for the inhibition of Cl-/NO3- exchange measured for AE1 transfected cells (before and after treatment with CAI). Format: functional.
For test [3], the species on record is Homo sapiens. The experiment in a line: Inhibitory concentration for the half maximal inhibition of Cl-/NO3- exchange measured for AE1 transfected cells (before and after treatment with CAI). Type of test: functional.
The next test deals with T1, Carbonic anhydrase 4 (Bos taurus, UniProt Q95323).
T1 sequence (Q95323 whole entry): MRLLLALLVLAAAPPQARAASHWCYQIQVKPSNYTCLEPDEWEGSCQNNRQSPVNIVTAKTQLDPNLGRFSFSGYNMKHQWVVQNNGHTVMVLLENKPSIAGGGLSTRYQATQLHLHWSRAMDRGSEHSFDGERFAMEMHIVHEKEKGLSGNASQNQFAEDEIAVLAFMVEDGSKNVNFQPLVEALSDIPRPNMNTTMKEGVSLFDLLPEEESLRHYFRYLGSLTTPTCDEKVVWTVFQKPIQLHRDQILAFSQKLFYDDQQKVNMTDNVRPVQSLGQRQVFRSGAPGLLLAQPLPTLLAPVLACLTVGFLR

Another test addresses Carbonic anhydrase 2 (Homo sapiens, UniProt P00918).
In a further test the target is Carbonic anhydrase 1 (Homo sapiens, UniProt P00915).
Carbonic anhydrase 1, sequence (P00915 whole entry): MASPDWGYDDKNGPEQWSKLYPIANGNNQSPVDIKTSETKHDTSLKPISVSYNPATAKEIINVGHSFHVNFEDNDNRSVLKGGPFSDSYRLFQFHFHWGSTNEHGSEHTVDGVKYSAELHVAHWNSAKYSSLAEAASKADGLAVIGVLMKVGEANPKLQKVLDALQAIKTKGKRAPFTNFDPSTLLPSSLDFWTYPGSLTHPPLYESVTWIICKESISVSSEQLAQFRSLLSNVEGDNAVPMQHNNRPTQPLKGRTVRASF
Another test addresses Carbonic anhydrase 9 (Homo sapiens, UniProt Q16790).

Description for Carbonic anhydrase 1: Inhibition constant evaluated for the inhibition of human CA I (Carbonic anhydrase I)
Description for Carbonic anhydrase 2: Inhibition constant evaluated for the inhibition of human CA II (Carbonic anhydrase II)
Description for Carbonic anhydrase 4: Inhibition constant evaluated for the inhibition of bovine CA IV (Carbonic anhydrase IV)
Description for Carbonic anhydrase 9: Inhibition constant evaluated for the inhibition of human CA IX (Carbonic anhydrase IX)

Compound `CCCCc1cc(-c2ccccc2)cc(CCCC)[n+]1-c1ccc(S(=O)(=O)Nc2nnc(S(N)(=O)=O)s2)cc1.[O-][Cl+3]([O-])([O-])[O-]` had an Inhibition in the test listed under Homo sapiens [1] of 34%. This compound also showed an Activity in the test listed under Homo sapiens [2] of 0.709. The compound also had an IC50 in the test listed under Homo sapiens [3] of 1510 µM.

As for `Cc1c2cc(c(C)[n+]1-c1ccc(S(=O)(=O)Nc3nnc(S(N)(=O)=O)s3)cc1)CCCCCCCCC2.[O-][Cl+3]([O-])([O-])[O-]`, the Ki on Carbonic anhydrase 4 came out at 0.0046 µM; at Carbonic anhydrase 2, 0.00137 µM; on Carbonic anhydrase 1, 0.003 µM; at Carbonic anhydrase 9, 0.012 µM. Moreover, the Activity in the test filed under Homo sapiens [2] came to 1.

`CCCc1cc(-c2ccccc2)cc(CCC)[n+]1-c1ccc(S(=O)(=O)Nc2nnc(S(N)(=O)=O)s2)cc1.[O-][Cl+3]([O-])([O-])[O-]` gave an Inhibition in the test filed under Homo sapiens [1] of 32%. Further, the Activity in the test listed under Homo sapiens [2] is recorded as 0.651. In the test filed under Homo sapiens [3], this compound yielded an IC50 of 126 µM.
